From the METLIN SMRT retention time set (Domingo-Almenara et al. 2019)

Test: gradient 5% acetonitrile 3 min, to 50% in 2 min, to 85% in 15 min, held 3 min, 100 µL/min
Conditions: column: Zorbax Extend-C18 2.1 x 50 mm; eluents: water / acetonitrile, 0.1% formic acid
Method in brief: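 Mixtures of ~100 pure standards were chromatographed on a Zorbax Extend-C18 column (2.1 × 50 mm, 1.8 μm) at 100 μL/min using water and acetonitrile, each with 0.1% formic acid. Detection used a quadrupole time-of-flight mass spectrometer in positive and negative ionization mode, and data collection spanned 3 months. Retention time was obtained from adduct peaks picked computationally and each checked manually.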

Row | SMILES | RP-LC retention time [s]
1 | O=C(N1CCOC(c2ccc(C(F)(F)F)cc2)C1)C1(c2ccc(F)cc2)CC1 (centres undefined) | 1020
2 | CCCNC(=O)C1CCN(c2ccc(SCC(=O)Nc3ccccc3Cl)nn2)CC1 | 655
3 | COc1cccc(CNC(=O)c2nc(N3CCOCC3)c3c(C)cc(C)nc3n2)c1 | 625
4 | CCOC(=O)c1nc(N(CC)c2cc(C)ccc2C)c2ccccc2n1 | 1130
5 | Cc1cc(C)n(Cc2nc(-c3ccc(NC(=O)Cc4ccccc4F)cc3)oc2C)n1 | 915
6 | Cc1ccc(-n2nnc(C(=O)O)c2-c2ccccn2)c(F)c1 | 697
7 | Cc1cc(C(=O)NCc2ccc(C)o2)c2cc(Br)ccc2n1 | 801
8 | Cc1sc2ccn(Cc3ccc(F)cc3)c(=O)c2c1C(=O)NCC1CCCO1 (centres undefined) | 775
9 | O=C(CCc1c(-c2ccc(Cl)cc2)nc2ccccn12)NCC1CCCO1 (centres undefined) | 602
10 | O=C(NCCc1ccccc1)N1CCN(c2nc3cccnc3n(Cc3ccccc3)c2=O)CC1 | 1080
11 | O=C(Cc1nc(-c2cccnc2)n[nH]1)NCCc1ccccc1 | 588
12 | CCN1CCN(CCNC(=O)C2CCCN(c3ncc(-c4cccc(F)c4)cn3)C2)CC1 (centres undefined) | 632
13 | Cc1nccn1CCNC(=O)C(=O)Nc1ccc(OC(F)(F)F)cc1 | 580
14 | O=C(NC1CC1)c1c2c(nc3ccc(F)cc13)CCC2 | 650
15 | O=C(NCCc1c[nH]c2ccccc12)C1CCN(c2ncnc3c2oc2ccccc23)CC1 | 722
16 | Fc1ccc(OCc2nc(-c3cccc(-c4csc(C5CC5)n4)c3)no2)cc1 | 1290
17 | Cn1c(=O)c(N2CCCC(C(=O)NCc3cccc(Br)c3)C2)nc2ccccc21 (centres undefined) | 998
18 | CCN1C(=O)c2ccccc2Oc2ccc(C(=O)NCc3ccc(C)cc3)cc21 | 958
19 | COc1cccc(NC(=O)N2CCC3(C2)C(=O)N(C)c2ccc(OC)cc23)c1 (centres undefined) | 746
20 | CCc1noc(NC(C)=O)c1-c1ccc(OC)c(S(=O)(=O)NC(C)C)c1 | 695
21 | COc1ccccc1-c1noc(C2CCCN2C(=O)c2ccccc2C)n1 (centres undefined) | 896
22 | Cc1ccc(C)c(N2CCN(c3ccnc(SCC(=O)NCCC(C)C)n3)CC2)c1 | 920
23 | Cc1nc(CCNS(=O)(=O)c2ccc(Cl)cc2)no1 | 769

Row | SMILES | RP-LC retention time [s]
24 | O=C(c1cnc2sc3c(n2c1=O)CCC3)N1CCN(c2ncccn2)CC1 | 658
25 | O=C(Nc1cc(F)c(F)c(F)c1)N1CCc2nc[nH]c2C1 | 614
26 | O=C(CCCN1CCC(O)(c2cccc(C(F)(F)F)c2)CC1)c1ccc(F)cc1 | 805
27 | CC(=O)N1c2ccc(S(=O)(=O)N3CCC(C(=O)NC(C)c4ccccc4)CC3)cc2CC1C (centres undefined) | 733
28 | O=C(NCCCN1CCCC1=O)c1cc2c(s1)CCN(C(=O)c1ccc(F)cc1)C2 | 670
29 | O=C(NCc1ccc(C(F)(F)F)cc1)c1cnc(-c2ccccc2)nc1-c1ccncc1 | 935
30 | CCn1c(=O)c(N2CCC(C(=O)NCCc3ccco3)CC2)nc2cccnc21 | 828
31 | C=CCn1c(=O)c2ccccc2n(Cc2nc(-c3cccc(Br)c3)no2)c1=O | 1140
32 | O=C(Nc1c(-c2ccccc2)nc2ccccn12)c1cc(Br)ccc1Cl | 717
33 | CCc1ccc(NC(=O)Cc2nnc3c(-c4nc(C5CC5)no4)cccn23)cc1 | 805
34 | COc1ccc(NC(=O)N2CCCC2C(=O)Nc2ccc(C)c(Cl)c2)cc1 (centres undefined) | 880
35 | CC(C)n1nnc2cc(C(=O)N(C)CC(=O)Nc3ccc(F)c(Cl)c3)ccc21 | 790
36 | CCCNC(=O)c1cc(C)nc2ccc(Br)cc12 | 718
37 | O=C(Cn1nc(N2CCSCC2)c2ccccc2c1=O)Nc1ccc(Br)cc1F | 1060
38 | O=C(CSc1ccc(F)cc1)N1CCCC(c2nnc(-c3ccc4c(c3)OCO4)o2)C1 (centres undefined) | 810
39 | Cc1cccn2c(Nc3ccc4c(c3)OCCO4)c(-c3cccc(Cl)c3)nc12 | 727
40 | Cn1cccc1C(=O)N1CCN(c2cc(-c3ccc(Cl)cc3)[nH]n2)CC1 | 832
41 | CCC(CC)COC(=O)c1[nH]c2c(c1C)C(=O)CC(c1ccc(OC)c(OC)c1)C2 (centres undefined) | 1140
42 | CCc1ccc(S(=O)(=O)N2CCC3(CC2)NCCN=C3NCc2cccc(OC)c2)cc1 | 775
43 | Cc1noc(C)c1-c1ccc(S(=O)(=O)N2CCC(C)CC2)cc1 | 1020
44 | COc1cccc(-c2nc(-c3ccc4nnn(C(C)C)c4c3)no2)c1 | 1150
45 | Cc1cccc(OCC(=O)N(Cc2ccc(Br)o2)C2CCS(=O)(=O)C2)c1C (centres undefined) | 960
46 | CCOC(=O)C1=C(CN(C)Cc2ccccc2)NC(=O)NC1c1ccc(F)cc1 (centres undefined) | 663

Row | SMILES | RP-LC retention time [s]
47 | COCCn1cc2c3c(cccc31)CN(C(=O)NCCC(C)C)CC2 | 912
48 | CCn1cc(CN2CCC(C(=O)NC3CCCc4ccccc43)CC2)c2cc(OC)ccc21 (centres undefined) | 760
49 | O=C(NCCCNC(=O)NC1CCCCC1)NC1CCCCC1 | 673
50 | Cc1ccccc1Nc1c(-c2ccccc2)nc2cnccn12 | 906
51 | CCC(=O)Nc1cc2c(cc1Sc1ccc(OC)cc1)n(C)c(=O)n2C | 974
52 | CC(C)c1noc(C2CCCCN2Cc2nc(-c3ccccn3)no2)n1 (centres undefined) | 824
53 | Cc1ccc(-n2ccnc2SCc2nc(-c3cccc(Br)c3)no2)cc1 | 1080
54 | COC(=O)c1cc(S(=O)(=O)N2CCCC2C(=O)N2CCC(C)CC2)cn1C (centres undefined) | 770
55 | COCCc1noc(C2Cc3ccccc3N2C(=O)NCC(=O)OC)n1 (centres undefined) | 720
56 | COc1ccc(-c2nc3cnccn3c2Nc2cc(OC)ccc2OC)cc1 | 831
57 | COc1ccc(-c2cc3n(n2)CCCN(S(=O)(=O)c2ccc4c(c2)CCC4)C3)cc1 | 1080
58 | CCn1c(C(=O)NC(C)CCc2ccccc2)cc2sccc21 (centres undefined) | 1110
59 | Cc1nn(C)c(C)c1S(=O)(=O)N1CCO[C@@H](COc2ccccn2)[C@@H]1c1ccccc1 | 850
60 | O=C(Cn1cc(C(=O)c2ccco2)c2ccccc21)NCc1ccc2c(c1)OCCCO2 | 858
61 | O=C(NCC1CC1)c1cn(-c2ccc(NC(=O)C3CC3)cn2)cn1 | 651
62 | CCOC(=O)c1[nH]c(C)c(CCC(=O)NCc2ccc3c(c2)OCO3)c1C | 780
63 | O=C(c1nc2ncccn2n1)N1CCCn2cc(-c3ccccc3)nc21 | 595
64 | CC(C)c1ccc(NC(=O)C(=O)c2cn(CC(=O)N3CCCC3)c3ccccc23)cc1 | 1140
65 | Cc1nc2cccnc2n1CC1CCCN(S(=O)(=O)Cc2ccc(Cl)cc2)C1 (centres undefined) | 718
66 | COc1ccc(CCN2CC(C(=O)O)CC2=O)cc1OC (centres undefined) | 611
67 | O=C(Cc1ccccc1)N1CCN(c2cc(-c3cccs3)[nH]n2)CC1 | 765
68 | CN1CCCn2nc(C3CCN(C(=O)Nc4cccc(C#N)c4)CC3)cc2C1=O | 656
69 | O=C(c1ccc(=O)[nH]n1)N1CCN(S(=O)(=O)C2CC2)CC1 | 552

Row | SMILES | RP-LC retention time [s]
70 | CCc1nc(-c2csc(S(=O)(=O)N3CCC(C(=O)Nc4cccc(F)c4)CC3)c2)no1 | 1010
71 | Cc1ccc2c(c1)N(S(C)(=O)=O)CCC(C(=O)Nc1cccc(C)c1C)O2 (centres undefined) | 945
72 | Cc1cc(C)cc(N2CC(c3nc(-c4ccc5c(c4)OCO5)no3)CC2=O)c1 (centres undefined) | 1040
73 | O=C(CCc1nc2ccccc2n(CC(=O)Nc2ccc3c(c2)OCCO3)c1=O)NCc1ccccc1 | 782
74 | Cc1noc(C)c1CC(=O)N1CCOc2ccc(NC(=O)C3CC3)cc2C1 | 676
75 | Cc1ccc(-c2cc3c(=O)n(Cc4noc(CN5CCCCC5C)n4)ccn3n2)cc1C (centres undefined) | 730
76 | Cc1ccc(CNC(=O)c2cccc3c2CCN3C(=O)c2ccc(F)cc2)o1 | 889
77 | COc1cc([C@@H]2c3cc4c(cc3[C@H](O)[C@@H](CO)[C@@H]2C(=O)NCCC2=CCCCC2)OCO4)cc(OC)c1OC | 781
78 | Cc1ccccc1-c1nnc(CSc2nnc(NC(=O)c3ccc(C(F)(F)F)cc3)s2)o1 | 1050
79 | COC(=O)c1ncn2c1C(=O)N(Cc1ccccc1C)C(C)(C(=O)NCc1ccccc1)C2 (centres undefined) | 735
80 | CCCn1cc(S(=O)(=O)NCc2ccccc2Cl)c2cccnc21 | 912
81 | CCOCCCNCc1ccc(-c2ccc(OC)c(Cl)c2)o1 | 705
82 | CCC(C)NC(=O)CSc1cc(N2CCN(c3ccc(OC)cc3)CC2)ncn1 (centres undefined) | 775
83 | CCCNC(=O)N1CCCN(C2=NS(=O)(=O)C(c3ccc(Cl)cc3)=C2C)CC1 | 794
84 | CCn1cc(C2=CCN(S(=O)(=O)c3ccc(OC)cc3)CC2)c2cccnc21 | 986
85 | Cc1ncoc1C(=O)N1CCC(F)(F)C(COCC2CC2)C1 (centres undefined) | 789
86 | CCc1cc(C(=O)N2CCN(CC)CC2)nc2cc(-c3cccs3)nn12 | 646
87 | Cc1c(C(=O)N(C)C)sc2nc(-c3ccccc3)c(NC(C)(C)C)n12 | 763
88 | O=C(N[C@@H]1CN(c2ccncn2)C[C@H]1CO)c1nccc2ccccc12 | 581
89 | Cc1cccc(Cn2c(=O)n(CCNC(=O)C3CCC3)c3ncccc32)c1 | 784
